Read-outs that look alike come from different tables or passages of the source.
Assays:
[1] = molecular target: T1, HDAC7 (Homo sapiens, UniProt Q8WUI4); assay: HDAC biochemical activity measurement (fluorescent substrate deacetylation);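 also: fluorogenic deacetylation assay using acetyl-lysine substrate at 20 µM, enzyme and compound incubated 30 min at 37 °C, then developer added, fluorescence read at 360/460 nm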; conditions: HDAC7; 37° C. 30 minutes
T1 sequence (Q8WUI4 1-952): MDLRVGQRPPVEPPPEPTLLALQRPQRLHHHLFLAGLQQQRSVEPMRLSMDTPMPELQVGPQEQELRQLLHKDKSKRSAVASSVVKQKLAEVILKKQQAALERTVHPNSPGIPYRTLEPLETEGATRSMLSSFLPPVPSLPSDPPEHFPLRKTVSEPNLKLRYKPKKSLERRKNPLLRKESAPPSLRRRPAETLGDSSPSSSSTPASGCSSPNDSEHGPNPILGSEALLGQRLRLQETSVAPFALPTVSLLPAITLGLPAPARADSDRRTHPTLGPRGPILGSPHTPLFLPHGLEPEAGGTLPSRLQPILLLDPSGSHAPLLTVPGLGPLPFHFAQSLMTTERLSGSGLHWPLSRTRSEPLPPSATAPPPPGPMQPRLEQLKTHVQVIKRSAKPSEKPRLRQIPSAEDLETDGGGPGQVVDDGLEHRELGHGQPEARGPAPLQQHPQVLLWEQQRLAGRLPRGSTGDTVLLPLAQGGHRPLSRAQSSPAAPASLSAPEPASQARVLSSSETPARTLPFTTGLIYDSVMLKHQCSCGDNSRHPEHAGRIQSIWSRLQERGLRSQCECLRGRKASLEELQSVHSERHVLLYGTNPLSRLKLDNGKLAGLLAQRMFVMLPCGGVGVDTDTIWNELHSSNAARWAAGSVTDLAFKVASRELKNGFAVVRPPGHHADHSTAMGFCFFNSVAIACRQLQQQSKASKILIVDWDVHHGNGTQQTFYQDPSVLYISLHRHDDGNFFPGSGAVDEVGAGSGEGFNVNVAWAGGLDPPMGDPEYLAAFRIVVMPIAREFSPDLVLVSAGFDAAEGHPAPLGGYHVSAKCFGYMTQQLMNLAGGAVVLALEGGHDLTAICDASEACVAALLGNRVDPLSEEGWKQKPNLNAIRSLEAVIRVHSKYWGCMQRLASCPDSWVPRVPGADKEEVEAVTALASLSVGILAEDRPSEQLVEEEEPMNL

[2] = tested on: PANC-1 (Pac-1, human pancreatic cancer cells); assay: MTT cancer cell growth inhibition; format: cell-based; conditions: Homo sapiens, PANC-1, 72 h, MTT, 72 hours incubation, read-out: GI50 PAN
Excerpt: (§1) MTT assay principle is yellow MTT can penetrate membrane into the cell, succinic dehydrogenase of the mitochondria in living cells can make exogenous MTT reduction of insoluble in water of blue-violet acicular formazan for crystallization and deposition in the cell, crystallization can be dissolved dimethyl sulfoxide (DMSO) solution, detected its absorbance at 490 nm/570 nm wavelength by enzyme-linked immunosorbent assay, which can reflect the number of cells.
(§2) Using DMEM+10% FBS culture medium or using 1640+10% FBS culture, respectively.
(§3) a) Cells were seeded in 96-well plates with the inoculation of 1500/well, 190 μl/hole, 37° C., 5% of CO2 incubator overnight;
(§4) b) The next day each well was added 10 μl of different drugs. The final concentration of drug was 10^−5˜10^−10M, three parallel holes; 37° C., 5% CO2 culture incubator for 72 hours incubation;
(§5) c) Per well was added 20 μl 5 mg/ml of MTT, 37° C., 5% CO2 culture incubator for 4 hours incubation;
(§6) d) The supernatant was discarded. Each well was added 100 μl of DMSO and oscillation;
(§7) e) 570 nm readings. Calculate cell viability. GI50 calculation based on the results.

[3] = tested on: KBM-5 (human chronic myelogenous leukemia); assay: MTT cancer cell growth inhibition; format: cell-based; conditions: Homo sapiens, KBM5, 72 h, MTT, 72 hours incubation, KBM-5 cells; read-out: GI50 KBM-5
Excerpt: as §1, §2, §3, §4, §5, §6, §7

[4] = tested on: SGC-7901 (human gastric cancer cells); assay: MTT cancer cell growth inhibition; format: cell-based; conditions: Homo sapiens, SGC-7901, 72 h, MTT, 72 hours incubation, SGC-7901 cells; read-out: GI50 SGC-7901
Excerpt: as §1, §2, §3, §4, §5, §6, §7

[5] = tested on: HT1080 (human fibrosarcoma cells); assay: MTT cancer cell growth inhibition; format: cell-based; conditions: Homo sapiens, HT-1080, 72 h, MTT, 72 hours incubation, read-out: GI50 HT1
Excerpt: as §1, §2, §3, §4, §5, §6, §7

[6] = tested on: DU145 (human prostate cancer cells); assay: MTT cancer cell growth inhibition; format: cell-based; conditions: Homo sapiens, DU-145, 72 h, MTT, 72 hours incubation, read-out: GI50 Du1
Excerpt: as §1, §2, §3, §4, §5, §6, §7

[7] = tested on: HCC827 (human non-small cell lung cancer cells); assay: MTT cancer cell growth inhibition; format: cell-based; conditions: Homo sapiens, HCC827, 72 h, MTT, 72 hours incubation, HCC827 cells; read-out: GI50 HCC827
Excerpt: as §1, §2, §3, §4, §5, §6, §7

[8] = tested on: Huh-7 (human hepatoma cells); assay: MTT cancer cell growth inhibition; format: cell-based; conditions: Homo sapiens, Huh-7, 72 h, MTT, 72 hours incubation, Huh-7 cells; read-out: GI50 Huh-7
Excerpt: as §1, §2, §3, §4, §5, §6, §7

[9] = tested on: MOLT-4 (human acute lymphoblastic leukemia cells); assay: MTT cancer cell growth inhibition; format: cell-based; conditions: Homo sapiens, MOLT-4, 72 h, MTT, 72 hours incubation, read-out: GI50 Mol
Excerpt: as §1, §2, §3, §4, §5, §6, §7

[10] = tested on: N-87 (human gastric cancer cells); assay: MTT cancer cell growth inhibition; format: cell-based; conditions: Homo sapiens, 72 h, MTT, 72 hours incubation, N-87 cells; read-out: GI50 N-87
Excerpt: as §1, §2, §3, §4, §5, §6, §7

[11] = tested on: lncap (prostate cancer cells); assay: MTT cancer cell growth inhibition; format: cell-based; conditions: Homo sapiens, LNCaP, 72 h, MTT, 72 hours incubation, read-out: GI50 lnca
Excerpt: as §1, §2, §3, §4, §5, §6, §7

[12] = tested on: A549 (human lung cancer cells); assay: MTT cancer cell growth inhibition; format: cell-based; conditions: Homo sapiens, A549, 72 h, MTT, 72 hours incubation, read-out: GI50 A54
Excerpt: as §1, §2, §3, §4, §5, §6, §7

[13] = tested on: Bel-7402 (human hepatoma cells); assay: MTT cancer cell growth inhibition; format: cell-based; conditions: Homo sapiens, Bel-7402, 72 h, MTT, 72 hours incubation, Bel-7402 cells; read-out: GI50 Bel-7402
Excerpt: as §1, §2, §3, §4, §5, §6, §7

[14] = tested on: MCF-7 (human breast cancer cells); assay: MTT cancer cell growth inhibition; format: cell-based; conditions: Homo sapiens, MCF7, 72 h, 72 hours incubation, read-out: GI50 MCF
Excerpt: as §1, §2, §3, §4, §5, §6, §7

[15] = tested on: K562 (human leukemia cells); assay: MTT cancer cell growth inhibition; format: cell-based; conditions: Homo sapiens, K562, 72 h, MTT, 72 hours incubation, K562 cells; read-out: GI50 K562
Excerpt: as §1, §2, §3, §4, §5, §6, §7

[16] = tested on: BGC-823 (human gastric cancer cells); assay: MTT cancer cell growth inhibition; format: cell-based; conditions: Homo sapiens, BGC-823, 72 h, MTT, 72 hours incubation, read-out: GI50 BG
Excerpt: as §1, §2, §3, §4, §5, §6, §7

[17] = tested on: U937 (human leukemia cells); assay: MTT cancer cell growth inhibition; format: cell-based; conditions: Homo sapiens, U-937, 72 h, MTT, 72 hours incubation, read-out: GI50 U93
Excerpt: as §1, §2, §3, §4, §5, §6, §7

[18] = tested on: H1975 (non-small cell lung adenocarcinoma); assay: MTT cancer cell growth inhibition; format: cell-based; conditions: Homo sapiens, NCI-H1975, 72 h, MTT, 72 hours incubation, H1975 cells; read-out: GI50 H1975
Excerpt: as §1, §2, §3, §4, §5, §6, §7

[19] = tested on: Hela (human cervical cancer cells); assay: MTT cancer cell growth inhibition; format: cell-based; conditions: Homo sapiens, HeLa, 72 h, MTT, 72 hours incubation, read-out: GI50 Hela
Excerpt: as §1, §2, §3, §4, §5, §6, §7

[20] = tested on: MDA-MB-231 (breast cancer cells); assay: MTT cancer cell growth inhibition; format: cell-based; conditions: Homo sapiens, MDA-MB-231, 72 h, read-out: GI50 MDA-MB-231, MTT, 72 hours incubation, MDA-MB-231 cells
Excerpt: as §1, §2, §3, §4, §5, §6, §7

[21] = tested on: KBM5-T315I (human chronic myelogenous leukemia); assay: MTT cancer cell growth inhibition; format: cell-based; conditions: Homo sapiens, 72 h, MTT, 72 hours incubation, KBM5-T315I cells; read-out: GI50 KBM5-T315I
Excerpt: as §1, §2, §3, §4, §5, §6, §7

Row | IC50 HDAC7 [1] | GI50 [2] [µM] | GI50 [3] [µM] | GI50 [4] [µM] | GI50 [5] [µM] | GI50 [6] [µM] | GI50 [7] [µM] | GI50 [8] [µM] | GI50 [9] [µM] | GI50 [10] [µM] | GI50 [11] [µM] | GI50 [12] [µM] | GI50 [13] [µM] | GI50 [14] [µM] | GI50 [15] [µM] | GI50 [16] [µM] | GI50 [17] [µM] | GI50 [18] [µM] | GI50 [20] [µM] | GI50 [21] [µM] | SMILES | also measured
1 | no activity | 0.09 | 0.083 | 0.036 | 0.09 | 0.05 | 0.094 | 0.049 | 0.04 | 0.034 | 0.04 | 0.03 | 0.094 | 0.02 | 0.053 | 0.03 | 0.03 | 0.034 | 0.049 | 0.024 | C=C1NC(=O)c2nc(ccc2F)CNC(=O)C[C@@H](/C=C/CCSC(C)=O)OC(=O)[C@H](C)NC1=O [Compound 90] | GI50 [19]: 0.08 µM
2 | no activity | – | 0.038 | 0.011 | – | – | 0.077 | 0.048 | – | 0.036 | – | – | 0.058 | – | 0.037 | – | – | 0.025 | 0.025 | 0.057 | C/C=C1\NC(=O)c2ccc(SC)c(n2)CNC(=O)C[C@@H](/C=C/CCS)OC(=O)[C@H](CC)NC1=O [Compound 231] | GI50 ([2]; PANC-1 cells): 0.01 µM; GI50 ([5]; HT1080 cells): 0.03 µM; GI50 ([6]; DU145 cells): 0.05 µM; GI50 ([9]; MOLT-4 cells): 0.05 µM; GI50 ([11]; lncap cells): 0.03 µM; GI50 ([12]; A549 cells): 0.06 µM; GI50 ([14]; MCF-7 cells): 0.08 µM; GI50 ([16]; BGC-823 cells): 0.01 µM; GI50 ([17]; U937 cells): 0.08 µM; GI50 ([19]; Hela cells): 0.04 µM
3 | no activity | 0.04 | 0.023 | 0.042 | 0.1 | 0.03 | 0.054 | 0.041 | 0.03 | 0.058 | 0.02 | 0.07 | 0.032 | 0.07 | 0.028 | 0.05 | 0.03 | 0.042 | 0.038 | 0.011 | C/C=C1\NC(=O)c2ccc(F)c(n2)CNC(=O)C[C@@H](/C=C/CCS)OC(=O)[C@H](Cc2ccc(O)cc2)NC1=O [Compound 130] | GI50 [19]: 0.13 µM

— US10065990B2, “Cyclic peptide compound, and preparation method, pharmaceutical composition and use thereof” (HANGZHOU GUANYU BIO-MEDICAL CO., LTD, priority 2013, dated 2018)
